Data reported in ChEMBL document CHEMBL2163231, “Synthesis and antituberculosis activity of novel unfolded and macrocyclic derivatives of ent-kaurane steviol” (2012).
≈ marks a conversion by molar mass, not a printed value.

tested on: Mycobacterium tuberculosis; assay: Antituberculosis activity against Mycobacterium tuberculosis H37Rv; assay type: functional

| SMILES | MIC [µg/mL] |
| --- | --- |
| C[C@H]1C[C@@]23CC[C@H]4[C@@](C)(CCC[C@@]4(C)C(=O)O)[C@@H]2CC[C@]1(O)C3 | 20 (≈ 62.4 µM) |
| C[C@]12CC[C@H]3[C@](CC[C@@H]4[C@]3(C)CCC[C@]4(C)C(=O)O)(C[C@@H]1OC(=O)CC(=O)O[C@@H]1C[C@]34CC[C@H]5[C@@](C)(CCC[C@@]5(C)C(=O)O)[C@@H]3CC[C@@]1(C)C4)C2 | 12.5 (≈ 17.6 µM) |
| C[C@]12CC[C@H]3[C@](CC[C@@H]4[C@]3(C)CCC[C@]4(C)C(=O)O)(C[C@@H]1OC(=O)CCCCCCC(=O)O[C@@H]1C[C@]34CC[C@H]5[C@@](C)(CCC[C@@]5(C)C(=O)O)[C@@H]3CC[C@@]1(C)C4)C2 | 12.5 (≈ 16 µM) |
| C[C@]12CC[C@H]3[C@](CC[C@@H]4[C@]3(C)CCC[C@]4(C)C(=O)O)(C[C@@H]1OC(=O)CCCCCCCCC(=O)O[C@@H]1C[C@]34CC[C@H]5[C@@](C)(CCC[C@@]5(C)C(=O)O)[C@@H]3CC[C@@]1(C)C4)C2 | 12.5 (≈ 15.5 µM) |
| C[C@]12CC[C@H]3[C@@]4(CC[C@@H]5[C@]3(C)CCC[C@]5(C)C(=O)OCCCOC(=O)CC(=O)OCCCOC(=O)[C@]3(C)CCC[C@@]5(C)[C@@H]6CC[C@@]7(C)C[C@]6(CC[C@@H]53)C[C@H]7OC(=O)CCCCCCCCC(=O)O[C@H]1C4)C2 | 1 (≈ 1.01 µM) |
| C[C@@H]1C[C@]23CC[C@@H]4[C@](C)(CCC[C@]4(C)C(=O)O)[C@H]2CC[C@@]1(OC(=O)CC(=O)O[C@]12CC[C@@H]4[C@](CC[C@H]5[C@@]4(C)CCC[C@@]5(C)C(=O)O)(C[C@@H]1C)C2)C3 | 5 (≈ 7.05 µM) |
| C[C@@H]1C[C@]23CC[C@@H]4[C@](C)(CCC[C@]4(C)C(=O)O)[C@H]2CC[C@@]1(OC(=O)CCCCCCC(=O)O[C@]12CC[C@@H]4[C@](CC[C@H]5[C@@]4(C)CCC[C@@]5(C)C(=O)O)(C[C@@H]1C)C2)C3 | 20 (≈ 25.7 µM) |
| C[C@@H]1C[C@]23CC[C@@H]4[C@](C)(CCC[C@]4(C)C(=O)O)[C@H]2CC[C@@]1(OC(=O)CCCCCCCCC(=O)O[C@]12CC[C@@H]4[C@](CC[C@H]5[C@@]4(C)CCC[C@@]5(C)C(=O)O)(C[C@@H]1C)C2)C3 | 20 (≈ 24.8 µM) |
| C[C@@H]1C[C@]23CC[C@@H]4[C@]5(C)CCC[C@]4(C)C(=O)OC(=O)[C@]4(C)CCC[C@@]6(C)[C@@H]7CC[C@@]8(C[C@@]7(CC[C@@H]64)C[C@@H]8C)OC(=O)CCCCCCCCC(=O)O[C@]1(CC[C@@H]25)C3 | 5 (≈ 6.34 µM) |
| C[C@@H]1C[C@]23CC[C@@H]4[C@](C)(CCC[C@]4(C)C(=O)O)[C@H]2CC[C@@]1(OC(=O)CCCCCCCCC(=O)O)C3 | 10 (≈ 19.8 µM) |
| C[C@@H]1C[C@]23CC[C@@H]4[C@]5(C)CCC[C@]4(C)C(=O)OCCCOC(=O)CC(=O)OCCCOC(=O)[C@]4(C)CCC[C@@]6(C)[C@@H]7CC[C@@]8(C[C@@]7(CC[C@@H]64)C[C@@H]8C)OC(=O)CCCCCCCCC(=O)O[C@]1(CC[C@@H]25)C3 | 20 (≈ 20.2 µM) |
| NNC(=O)c1ccncc1 [ISONIAZID] | 1 (≈ 7.29 µM) |
| C[C@@]12CC[C@@H]3[C@@](CC[C@H]4[C@@]3(C)CCC[C@@]4(C)C(=O)O)(CC1=O)C2 [ISOSTEVIOL] | 50 (≈ 157 µM) |
